The values that follow come from patent publication US20260209243A1, “A BIOORTHOGONAL CYCLOADDITION REACTION AND USE THEREOF” (NANJING UNIVERSITY, priority 2022, published 2026).

One series concerns SKOV3 cells. Kind of series: MTT assay. In kind it is cell-based. The conditions noted are these: 0-200 μM, 24 h. As to the method:
Relative cell viability of SKOV3 cells after incubation with FuA or PDO6. SKOV3 cells were incubated with 0-200 μM FuA or PDO6 for 24 h. MTT was used to assess the cell viability. Data are shown as mean±SEM (n=3).
SKOV3 cells were seeded in 96-well plates with a concentration of 10,000 cells per well. After 12 h, FuA or PDO6 was added with final concentrations of 0, 40, 80, 120, 160, 200 μM. Then, SKOV3 cells were further cultured for 24 h. MTT assay was then carried out. For each well, 20 μL MTT solution (final concentration, 1 mg/mL) was added and 150 μL DMSO was added after 4 h′ incubation. The absorbance at 490 nm was then measured to indicate the cell viability.
A general note: Formazan colour is commonly taken as a measure of viable cells.

Series [1] in a line: Kinetics studies: DFC reaction of FuA with oD1 in PBS. As to conditions: pH 7.4 PBS buffer. As for the experimental part:
(§1) DFC reaction in PBS and on proteins. (A) The DFC reaction of oD1 with FuA in pH 7.4 PBS buffer; (B) Time-dependent labelling of 2 mg/mL BSA-FuA with 100 nM oD1-TAMRA for time indicated. Fluorescence signals were acquired using Cy3 channel. Coomassie staining was used to assess BSA loading; (C) Schematic illustration on the single-site modification of the protein oD1 (C156)-SNAP-GFP through the DFC reaction. SNAP-GFP (2 mg/mL) in PBS (pH=7.4) was mixed with 1.5 equivalents of BG-PEG4-oD1 and was incubated at room temperature for 20 min to give oD1 (C156)-SNAP-GFP.
(§2) Measurement of second order rate constants of (A) reactions of o-dione (25 μM) with furan-2(3H)-one (250 μM) in 1×PBS (pH=7.4) and (B) reactions of oD1 (25 μM) with α-AL (250 μM) in different pH buffer. (When pH=5, 6; oD1 is 250 μM and α-AL is 2.5 mM) by plotting ln[1/(1−x)] versus time of o-dione with furan-2(3H)-one reaction (x represents the percent conversion of o-dione).
All kinetics experiments were carried out at room temperature in 1×PBS (pH=7.4). […] Pseudo-first order rate constant kobs was determined by plotting ln[1/(1−x)] versus time and analysis by linear regression. x represents the percent conversion of o-dione. […] The second rate constant k2 was calculated by kobs/[furan-2(3H)-one]. […]

The next series concerns the target T1, BSA-FuA (Bos taurus, UniProt P02769).
T1 construct: purchased Sangon Biotech (Shanghai, China)
The series can be described thus: In-gel fluorescence assay of DFC reaction on BSA-FuA. As to conditions: incubated in PBS; PDO type cycloadduct confirmed by LC-MS/MS. In kind it is biochemical, bovine. As to the method: as §1
DFC-based BSA protein labelling and characterization. […]
A solution of BSA (2 mg/mL) in PBS (pH=7.4) was mixed with 200 equivalents of FuA NHS ester and was shaken (900 rpm) at room temperature for 4 h. […] The concentration of BSA-FuA was quantified with BCA protein assay kit (Pierce).
For concentration-dependent reaction, BSA-FuA (2 mg/mL) was incubated with various concentrations of oD1-TAMRA (0-1000 nM) in PBS at room temperature for 30 min. […] Protein samples (20 μg) were further analyzed by gel electrophoresis using 12% polyacrylamide gels and imaged with Bio-Rad Chemdoc imaging system using corresponding filters. Protein loading was assessed by staining with Coomassie Blue according to manufacturer's instructions.

Series [2] is described as follows: Kinetics studies: cycloaddition of o-diones with α-AL. As to conditions: aqueous solution, pH ranging from 5 to 9. As to the method: The cycloaddition kinetics of α-AL with different o-diones in pH 7.4 PBS buffer or in aqueous solution with indicated pH.
as §2
All kinetics experiments were carried out at room temperature in 1×PBS (pH=7.4). Second order kinetics were performed by combining o-dione and furan-2(3H)-one in a 1:10 ratio, and the concentration of o-dione is 25/250 μM. Pseudo-first order rate constant kobs was determined by plotting ln[1/(1−x)] versus time and analysis by linear regression. x represents the percent conversion of o-dione. The slope of the linear equation is kobs. The second rate constant k2 was calculated by kobs/[furan-2(3H)-one]. The reported errors for rate constants are based on the standard deviation of the mean for experiments performed in triplicate.

A further series has as its system live cells. The conditions noted are these: stated as known; cited from earlier work.

T1 sequence (P02769 25-607): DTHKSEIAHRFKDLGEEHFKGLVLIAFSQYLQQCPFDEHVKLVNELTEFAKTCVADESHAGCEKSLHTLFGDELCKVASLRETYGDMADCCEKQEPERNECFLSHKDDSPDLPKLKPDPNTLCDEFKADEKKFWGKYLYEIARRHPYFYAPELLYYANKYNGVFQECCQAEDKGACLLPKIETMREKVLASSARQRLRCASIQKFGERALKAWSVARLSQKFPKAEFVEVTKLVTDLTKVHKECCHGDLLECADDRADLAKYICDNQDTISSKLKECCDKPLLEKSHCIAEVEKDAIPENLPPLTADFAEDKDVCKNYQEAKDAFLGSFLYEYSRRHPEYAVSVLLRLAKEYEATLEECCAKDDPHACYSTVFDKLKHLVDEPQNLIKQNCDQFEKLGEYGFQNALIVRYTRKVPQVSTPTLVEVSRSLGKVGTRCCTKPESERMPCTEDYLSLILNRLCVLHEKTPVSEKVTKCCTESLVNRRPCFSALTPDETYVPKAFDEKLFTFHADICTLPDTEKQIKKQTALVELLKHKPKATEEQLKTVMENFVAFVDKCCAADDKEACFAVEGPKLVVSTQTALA

With `O=C(O)CCCC1=CCC(=O)O1` [FuA, 4-(5-oxo-4,5-dihydrofuran-2-yl)butanoic acid], in the series with SKOV3 cells, the “cytotoxicity / compatibility with live cells (MTT)” value is listed as “good compatibility with live cells”. Moreover, in series [1], the “second-order constant of DFC reaction of oD1 with FuA” value was “about 4 M^−1 s^−1”.

Turning to `O=C1C(=O)c2ccccc2-c2ccccc21` [PQ, phenanthrene-9,10-dione], the “fluorescence of BSA-FuA after incubation” value on BSA-FuA is given as “fluorescence turn-on”.

In the case of `O=C(O)c1ccc2c(c1)-c1ccccc1C(=O)C2=O` [oD1], the “pH dependence of reaction kinetics with α-AL” value in series [2] is reported as “increase of pH under which α-AL is stable enough apparently accelerates the cycloaddition reaction”. In the series with live cells, the “compatibility with live cells” value is “compatible with live cells”.
